pKi: −log10 of the molar value.
Target: Kappa-type opioid receptor (Homo sapiens, UniProt P41145)
Assay: Displacement of [3H]-U69593 from human kappa opioid receptor expressed in U2OS cells by radioligand binding assay

Sequence of Kappa-type opioid receptor (P41145 whole entry): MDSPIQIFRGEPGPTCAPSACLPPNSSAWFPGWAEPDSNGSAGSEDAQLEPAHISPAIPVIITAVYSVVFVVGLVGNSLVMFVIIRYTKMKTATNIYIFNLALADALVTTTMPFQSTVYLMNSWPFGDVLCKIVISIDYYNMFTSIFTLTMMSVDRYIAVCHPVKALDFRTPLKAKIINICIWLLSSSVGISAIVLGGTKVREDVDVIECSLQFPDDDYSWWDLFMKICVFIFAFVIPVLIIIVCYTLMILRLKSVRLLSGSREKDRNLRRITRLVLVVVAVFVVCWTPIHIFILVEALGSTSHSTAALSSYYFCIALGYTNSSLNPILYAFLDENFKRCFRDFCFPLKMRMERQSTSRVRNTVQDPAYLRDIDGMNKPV

Question: How did the pKi turn out when `C/C=C1/CN2CC[C@@]34C(=Nc5ccccc53)C(C(=O)OC)[C@H]1C[C@H]24` (stereo partly specified) was run?
Answer: 7.05
